We go through one molecule from patent publication US20250339426A1, “GCN2 MODULATOR FOR TREATING CANCER” (HIBERCELL, INC., priority 2022, published 2025).

The term pEC50 denotes the negative decadic logarithm of the EC50, by convention in mol/L. A word on the TGI: it is the reduction of tumour growth relative to the control group. Higher therefore signals a stronger effect on the tumour.

The test system of experiment [1] is HIF1α and HIF2a in FaDu tumors. Briefly: Tumor IHC, FaDu tumors. Conditions: end of study. It is filed as in vivo, BALB/c nude mice. On the procedure: Immunohistochemical analysis was carried out on tumors that were collected at the end of the study described in Example 6. Formalin-fixed paraffin-embedded samples were sectioned at 5 μm thickness and mounted on Superfrost Plus microscope slides (Fisher Scientific). All immunohistochemical (IHC) staining was performed on Bond Rx auto-stainer (Leica Biosystems) using the conventional TSA-amplified detection system. Primary antibodies used were as follows: a-ASNS (Cell Signaling Technology #92479), a-PUMA (Cell Signaling Technology #98672), a-PSAT1 (Proteintech #10501-1-AP), a-PHGDH (Proteintech #14719-1-AP), HIF-1a-Novus Biologicals NB 100-479, HIF-2a-Novus Biologicals NB100-122SS, and GLUT-1-EMB Biosciences 07-1401. […]
Slides were imaged with Aperio Versa 200 (Leica Biosystems) whole-slide scanner using 10×/0.32NA objective, and the data were analyzed using custom-written macros in ImageJ/FIJI (NIH). Briefly, 150 μm of outer edges of the tumor sections and necrotic regions (determined by lack of 4′,6-diamidino-2-phenylindole (DAPI) signal or presence of condensed DNA) were eliminated from the analysis. […] Scans of immune-staining were processed to remove background, then total intensity value above appropriate threshold levels was measured and normalized to tissue area. […]

For the next experiment, the system named is CTG-3679. Briefly: Ex vivo AML PDX cell viability (Cell Titer Glo). The experiment is classed as cell-based. Conditions: Homo sapiens, 144 h; PDX model CTG-3679, 6 days; read-out: HC-7366 EC50. On the procedure:
(§1) . Cell viability was assayed after treating PDX models with DMSO or HC-7366 for 6 days using a plate-based luminescence assay (Cell Titer Glo). […]
(§2) EC50 values were calculated to the bottom of the curve and are provided below. Viability curves are provided for the models CTG-2229 (FIG. 81), CTG-3680 (FIG. 82), CTG-3667 (FIG. 83), CTG-2456 (FIG. 84), CTG-2457 (FIG. 85), and CTG-2454 (FIG. 86).
In general terms: Cellular ATP, detected with luciferase, serves as a proxy for viable cell number.

Another experiment deals with CTG-2238. In words: Ex vivo AML PDX cell viability (Cell Titer Glo). It is filed as cell-based. Conditions: Homo sapiens, 144 h; PDX model CTG-2238, 6 days; read-out: HC-7366 EC50. On the procedure: as §1, §2
Experiment [2] relates to MOLM-16 cells. Briefly: Seahorse XF Mito stress test (OCR) and Glycolysis Stress Test (ECAR). The experiment is classed as cell-based, human. Conditions: 0.001, 0.1 or 10 μM, 16 hrs; strongest effect at 0.1 μM. On the procedure:
MOLM-16 cells were treated with 0.001, 0.1 or 10 μM HC-7366 for 16 hrs and the Seahorse XF Glycolysis Stress Test (ECAR; extracellular acidification rate) and Seahorse XF Mito stress test (OCR; oxygen consumption rate) (Agilent technologies, CA, USA) were performed.

Experiment [3] has as its system TM00298 (human prostate cancer cells). In words: In vivo tumor growth inhibition, TM00298 PDX. Set-up: species or system NSG mice. Conditions: both 3 mg/kg and 30 mg/kg twice daily oral. On the procedure: TM00298 (human prostate cancer cells): Male 6-8 weeks old NSG mice were inoculated subcutaneously with 1 mm^3 TM00298 tumor fragments. The treatments were started when the mean tumor size reached approximately 123 mm^3 and continued until end of study by twice daily oral gavage dosing of HC-7366 at listed doses (vehicle, 3 mg/kg HC-7366, or 30 mg/kg HC-7366, FIG. 15).
(§3) [formula] • 2.2.2 Tumor Measurements: The measurement of tumor size was conducted three times weekly with a caliper and recorded. The tumor volume (mm^3) was estimated using the formula: TV=a×b^2/2, where “a” and “b” is long and short diameters of a tumor, respectively. Tumor volume was calculated using the formula [tumor volume (mm^3)=π/6×length×width^2).
(§4) Regression was calculated using the formula=100×ΔT/T initial, if ΔT<0. Animals with 0 mm^3 tumor volume (no measurable tumor) for three consecutive measurements were considered as complete responders and animals with 50% tumor regressions were partial responders.

The test system of experiment [4] is Kasumi-1 (human AML cancer cells). Briefly: In vivo tumor growth inhibition, Kasumi-1 xenograft. Set-up: species or system CB17 SCID mice. On the procedure:
Kasumi-1 (human AML cancer cells): Female 6-8 weeks old CB17 SCID mice were inoculated subcutaneously on the right flank with […] tumor cells (1×10^7) in RPMI 1640 without serum for tumor development. The treatments were started when the mean tumor size reached approximately 151 mm^3 at Day 29 after cell inoculation and continued until end of study by twice daily oral gavage dosing of HC-7366 at listed doses (vehicle, 3 mg/kg HC-7366, or 30 mg/kg HC-7366, FIG. 18).
as §3, §4

For experiment [5], the system named is MOLM-16 cells. In words: CTG viability assay, MOLM-16 sgControl and sgGCN2 cells. Conditions: 24 or 48 hr. The experiment is classed as cell-based, human. On the procedure:
MOLM-16 cells were obtained from DSMZ (#ACC 555) and were cultured in RPMI 1640 (Gibco, #11875119) with 20% FBS (Invitrogen, #10099141C) at 37° C. and 5% CO2. MOLM-16 GCN2 CRISPR knockout cells (sgGCN2) were generated and compared to control cells (sgControl). For viability experiments, cells were plated in 384-well cell culture plates and incubated overnight. Compounds were diluted in 8 concentrations by 3-fold dilution in 384pp-plate using TECAN EVO200 to a final concentration ranging from […]. The plates were incubated for 24 or 48 hr and viability was assessed by adding CellTiter-Glo® 2.0 Assay according to the manufacturer's protocol (Promega, G9243) to each well. The plates were then incubated at RT for 30 min. The luminescent signals were read by Envision (PerkinElmer) plate reader and analyzed by Prism.

pEC50: −log10 of the molar value.

On to `CNC(=O)c1ncn2cc(-c3c(F)ccc(NS(=O)(=O)c4cc(Cl)cnc4OC)c3F)ncc12` [HC-7366, 6-(3-((5-chloro-2-methoxypyridine)-3-sulfonamido)-2,6-difluorophenyl)-N-methylimidazo[1,5-a]pyrazine-1-carboxamide], for which, in experiment [1], the HIF1α protein levels entry is “significantly reduced” and the HIF2a protein levels entry is listed as “significantly reduced”. Besides, in the experiment on CTG-3679, the pEC50 is 3.97. Further, the negative-log EC50 (pEC50) with CTG-2238 is 3.91. Further, in the experiment on MOLM-16 cells [2], the “OCR (oxygen consumption rate)” value is given as “significantly reduced” and the “glycolysis (ECAR)” value is on record as “significantly reduced”. This molecule also had a tumor growth inhibition in experiment [3] of around 70%. This molecule registered a tumour growth inhibition (TGI) in experiment [4] (3 mg/kg twice daily oral) of 73%. The molecule also returned a TGI in experiment [4] (30 mg/kg twice daily oral) of 77%. The viability response entry in the experiment on MOLM-16 cells [5] (GCN2 CRISPR knockout cells) is on record as “reversed”. Also, the viability result in the experiment on MOLM-16 cells [5] (GCN2 wild-type (sgControl), lower concentrations, U-shaped manner) was “potently reduced viability”.
